# Measured values reported in patent US10899822B2, “Compositions comprising D-amino acid peptides and methods of production and use thereof for inhibiting autoantibodies” (The Board of Regents of the University of Oklahoma, priority 2013, dated 2021).
# “Also recorded” adds a separate entry of the source. Marks after values point to notes of the source that are not given here. Square brackets hold non-standard residues; d marks the D form. Ends that are not written are not given here. Peptide text beside a SMILES is read from it.
# What was measured:
# [1] = In vitro stability in synthetic gastric fluid (SGF, pepsin+HCL, pH 1.2) at 37° C., HPLC; assay type: in vitro ADME; conditions: pH 1.2, 37° C.
# Method: FIG. 13 graphically illustrates an in vitro stability analysis of the native and RID peptides in synthetic gastric fluid (SGF, pepsin+HCL, pH 1.2) at 37° C., as measured by HPLC. This Figure indicates the rate of proteolysis of the AT1R-ECL2 L-amino acid peptide and the AT1R-ECL2 RID peptide under these conditions.
# In FIG. 13, the AT1R-ECL2 L-amino acid peptide and the AT1R-ECL2 RID peptide were each separately incubated in artificial gastric juice (SGF, pepsin+HCL, pH 1.2) at 37° C., and proteolysis of the peptides was measured by HPLC.
# [2] = In vitro stability in human serum at 37° C., HPLC; assay type: in vitro ADME
# β1AR-AAb [3] = test: Effective refractory period (ERP) in β1AR-immunized rabbits; assay type: in vivo, rabbit
# Text: FIG. 8 contains a flow chart depicting the protocol of the procedures performed in rabbits in a study to determine the effective refractory period (ERP) in atrial cells in rabbit-models with pre-immune, post-immune (β1AR-immunization), and post-immune plus β1AR-ECL2 RID peptide administration. The ERP inversely is one parameter of the susceptibility of the cardiac cells to induction of tachyarrhythmias.
# (§1) The RID peptide was utilized in a study measuring the effective refractory period (ERP) in five New Zealand white rabbits. The procedures performed are outlined in the flow chart of FIG. 8. The ERP was measured during a pre-immune state and following immunization with β1AR ECL2 peptide to generate autoantibodies thereto, as described previously (Li et al. Am J Physiol Heart Circ Physiol. (2014) 306:H422-428). This was followed by administration of T4 (40 μg/kg), and an additive effect was observed on induced atrial tachyarrhythmias with the appearance of AF in a significant percentage of the T4 treated animals. […] In addition, the ERP in the rabbits was measured following administration of the β1AR-ECL2 RID peptide 90 minutes after T4.
# FIG. 10 illustrates the mean ERP for an atrial catheter lead.
# β1AR-AAb [4] = test: Heart rate and sustained arrhythmias in β1AR-AAb + T4 excess animals; assay type: in vivo, rabbit
# Method: as §1
# [5] = system: AT1R activating autoantibodies; test: Isolated rat cremaster artery contractility induced by serum of AT1R 2nd ECL peptide immunized rabbits; parameters: species or system rabbit; conditions: with ARB losartan
# Text: FIG. 4, Panel A illustrates the dose related contractile effect of serum from an AT1R 2nd ECL peptide immunized rabbit on an isolated rat cremaster artery. The in vitro contractile changes were expressed as % change (decrease) in diameter with the increasing dosage concentration (dilution). These effects are blocked by the selective angiotensin II receptor blocker (ARB) losartan.
# There was a significant increase of in vitro cremaster contractility (p<0.01) in the post-immune state compared to the pre-immune values.
# FIG. 5 illustrates the effect of in vitro incubation of the RID peptide with serum containing AT1R activating autoantibodies (rabbit) on cremaster artery contractility. […] The same response was observed when the serum was pre-incubated with the L-amino acid target peptide (FIG. 5, Panel B).
# Data provided herein were obtained with immunized rabbit serum containing autoantibodies that will stimulate AT1R receptors transfected into CHO cells. […] A bioassay for Angiotensin II-like activity using an isolated perfused cremaster artery in vitro has also been developed.
# AT1R autoantibodies = test: Binding of iodinated RID peptide to autoantibodies; conditions: iodine atom in the molecular structure
# Method: While therapeutic methods of using the RID peptides have been envisioned above, the scope of the presently disclosed inventive concepts also includes diagnostic uses of the RID peptides as well. The studies shown in FIGS. 12 and 13 were conducted at high concentrations (>250 μg/ml), and these concentrations are too high for study of absorption and use as part of a direct assay of serum binding to autoantibodies.
# [6] = rabbit, in vivo
# β1AR-AAb [7] = test: cAMP production in β1AR-CHO cells stimulated by post-immune sera; assay type: cell-based, rabbit
compound,measurement,setting,value
"C[C@H](N)C(=O)N[C@@H](Cc1ccccc1)C(=O)N[C@@H](Cc1c[nH]cn1)C(=O)N[C@@H](Cc1ccc(O)cc1)C(=O)N[C@@H](CCC(=O)O)C(=O)N[C@@H](CO)C(=O)N[C@@H](CCC(N)=O)C(=O)O [AT1R-ECL2 L-amino acid peptide, AFHYESQ, reference compound] (H-AFHYESQ-OH; N-terminus and C-terminus assumed)",rate of proteolysis compared with the RID peptide,[1],proteolyzed at a much faster rate
"C[C@@H](NC(=O)[C@@H](Cc1ccccc1)NC(=O)[C@@H](Cc1c[nH]cn1)NC(=O)[C@@H](Cc1ccc(O)cc1)NC(=O)[C@@H](CCC(=O)O)NC(=O)[C@@H](CO)NC(=O)[C@H](N)CCC(N)=O)C(=O)O [AT1R-ECL2 RID peptide, qseyhfa] (H-[dQ][dS][dE][dY][dH][dF][dA]-OH; N-terminus and C-terminus assumed)",peptide remaining intact,[2]; 24 hours (data not shown),80%
same,integrity at two hours,[2],resistance
same,integrity at two hours,[2]; listed as AT2R-ECL2 RID peptide,remained intact
same,integrity for four hours,[1]; four hours,remained intact
same,remaining at 6 h,"[1]; synthetic gastric fluid (SGF), six hours, read-out: peptide remaining",60%
"N[C@@H](Cc1cc(I)c(Oc2cc(I)c(O)c(I)c2)c(I)c1)C(=O)O [T4, thyroxine, reference compound]",effect on ERP,"β1AR-AAb [3]; post-immune + T4 (40 μg/kg), P<0.01",additive
same,#sustained arrhythmias/#induction attempts,β1AR-AAb [4]; Post-immune + T4,20/20**^#
same,Heart rate,β1AR-AAb [4]; Post-immune + T4,280 ± 56 beats/min
same,Sustained AF,β1AR-AAb [4]; Post-immune + T4,2/20
same,Sustained AFL,β1AR-AAb [4]; Post-immune + T4,0/20
same,Sustained AT,β1AR-AAb [4]; Post-immune + T4,2/20
same,Sustained JT,β1AR-AAb [4]; Post-immune + T4,2/20
same,Sustained ST,β1AR-AAb [4]; Post-immune + T4,11/20**
same,Sustained VT,β1AR-AAb [4]; Post-immune + T4,3/20
CCCCc1nc(Cl)c(CO)n1Cc1ccc(-c2ccccc2-c2nn[nH]n2)cc1 [losartan],contractile effect of immunized rabbit serum on isolated rat cremaster artery (% decrease in diameter),[5],blocked
"AT1R-ECL2 RID peptide has been iodinated: AT1R-ECL2 RID peptide directly iodinated; iodine atom in the structure blocked binding ([dQ][dS][dE][dY][dH][dF][dA]; also: directly iodinated, place not given here)",binding to autoantibodies,AT1R autoantibodies,blocked binding
dcckpdnycr [β1AR-ECL2 RID peptide],"effect on ERP (msec), right atrial lead","β1AR-AAb [3]; post-immune + RID peptide IV, over 90 minutes",dramatic rise in ERP; also recorded: reverses the shortening of the ERP
same,effect on ERP,"β1AR-AAb [3]; post-immune + T4 + RID peptide, 90 minutes after T4",reversed the β1AR-AAb effects but not the effect caused by T4
same,anti-RID antibodies by ELISA (immunogenicity),[6],failed to demonstrate anti-RID antibodies
same,sera-induced β1AR activation of cAMP production in β1AR-transfected cells,"β1AR-AAb [7]; sera pre-incubated with RID peptide, P<0.01",effectively blocked
same,ability of post-immune sera to stimulate cAMP in β1AR-CHO cells,β1AR-AAb [7]; sera taken 90 after IV injection of 1 mg/Kg BW,marked reduction of the ability to stimulate cAMP
same,#sustained arrhythmias/#induction attempts,β1AR-AAb [4]; Post-immune + T4 + β1AR-RID,6/20*^++
same,Heart rate,β1AR-AAb [4]; Post-immune + T4 + β1AR-RID,241 ± 35**^##+ beats/min
same,Sustained AF,β1AR-AAb [4]; Post-immune + T4 + β1AR-RID,0/20
same,Sustained AFL,β1AR-AAb [4]; Post-immune + T4 + β1AR-RID,0/20
same,Sustained AT,β1AR-AAb [4]; Post-immune + T4 + β1AR-RID,1/20
same,Sustained JT,β1AR-AAb [4]; Post-immune + T4 + β1AR-RID,2/20
same,Sustained ST,β1AR-AAb [4]; Post-immune + T4 + β1AR-RID,3/20^+
same,Sustained VT,β1AR-AAb [4]; Post-immune + T4 + β1AR-RID,0/20
